# Test results published in US12655116B2, “Substituted isophthalic acid diamides” (Bayer Aktiengesellschaft, priority 2020, dated 2026).
# Legend:
# [1] = tested on: DIGSA; assay: Pre-emergence herbicidal action against DIGSA; format: in vivo, Digitaria sanguinalis
# Summary of the method: (§1)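 Herbicidal effect was assessed 3 weeks after treatment by visual comparison with untreated controls, 100% denoting dead plants. Aqueous WP or EC preparations had been applied at 600 to 800 l/ha with 0.2% wetting agent to the soil covering freshly sown seeds.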
# [2] = tested on: STEME; assay: Pre-emergence herbicidal action against STEME; format: in vivo, Stellaria media
# Summary of the method: as §1
# [3] = tested on: AMARE; assay: Pre-emergence herbicidal action against AMARE; format: in vivo, Amaranthus retroflexus
# Summary of the method: as §1
# [4] = tested on: ECHCG; assay: Pre-emergence herbicidal action against ECHCG; format: in vivo, Echinochloa crus-galli
# Summary of the method: as §1
# [5] = tested on: ABUTH; assay: Pre-emergence herbicidal action against ABUTH; format: in vivo, Abutilon theophrasti
# Summary of the method: as §1
# [6] = tested on: POLCO; assay: Post-emergence herbicidal action against POLCO; format: in vivo, Polygonum convolvulus
# Summary of the method: (§2)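 Herbicidal effect was scored visually in percent after about 3 weeks in the greenhouse. Plants had been raised in sandy loam and treated post-emergence at the one-leaf stage with formulated compound at 600 to 800 l/ha water plus 0.2% wetting agent.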
# [7] = tested on: DIGSA; assay: Post-emergence herbicidal action against DIGSA; format: in vivo, Digitaria sanguinalis
# Summary of the method: as §2
# [8] = tested on: MATIN; assay: Pre-emergence herbicidal action against MATIN; format: in vivo, Matricaria inodora
# Summary of the method: as §1
# [9] = tested on: AMARE; assay: Post-emergence herbicidal action against AMARE; format: in vivo, Amaranthus retroflexus; settings: visual assessment about 3 weeks after treatment, 100% = plants have died, 0% = like control plants
# Summary of the method: as §2
# [10] = tested on: SETVI; assay: Pre-emergence herbicidal action against SETVI; format: in vivo, Setaria viridis
# Summary of the method: as §1
# [11] = tested on: AVEFA; assay: Post-emergence herbicidal action against AVEFA; format: in vivo, Avena fatua; settings: Avena fatua, 504 h, visual assessment about 3 weeks after treatment, 100% = plants have died, 0% = like control plants
# Summary of the method: as §2
# [12] = tested on: STEME; assay: Post-emergence herbicidal action against STEME; format: in vivo, Stellaria media
# Summary of the method: as §2
# [13] = tested on: ECHCG; assay: Post-emergence herbicidal action against ECHCG; format: in vivo, Echinochloa crus-galli
# Summary of the method: as §2
# [14] = tested on: VIOTR; assay: Pre-emergence herbicidal action against VIOTR; format: in vivo, Viola tricolor
# Summary of the method: as §1
# [15] = tested on: HORMU; assay: Pre-emergence herbicidal action against HORMU; format: in vivo, Hordeum murinum; settings: pre-emergence
# Summary of the method: as §1
# [16] = tested on: ABUTH; assay: Post-emergence herbicidal action against ABUTH; format: in vivo, Abutilon theophrasti; settings: visual assessment about 3 weeks after treatment vs untreated controls
# Summary of the method: as §2
# [17] = tested on: AVEFA; assay: Pre-emergence herbicidal action against AVEFA; format: in vivo, Avena fatua; settings: 80 g/ha, pre-emergence
# Summary of the method: as §1
# [18] = tested on: VIOTR; assay: Post-emergence herbicidal action against VIOTR; format: in vivo, Viola tricolor; settings: 20 g/ha
# Summary of the method: as §2
# [19] = tested on: POLCO; assay: Pre-emergence herbicidal action against POLCO; format: in vivo, Polygonum convolvulus; settings: dosage 80 g/ha
# Summary of the method: as §1
# [20] = tested on: PHBPU; assay: Post-emergence herbicidal action against PHBPU; format: in vivo, Pharbitis purpurea; settings: dosage 20 g/ha
# Summary of the method: as §2
# [21] = tested on: SETVI; assay: Post-emergence herbicidal action against SETVI; format: in vivo, Setaria viridis; settings: dosage 20 g/ha
# Summary of the method: as §2
# [22] = tested on: ALOMY; assay: Pre-emergence herbicidal action against ALOMY; format: in vivo, Alopecurus myosuroides; settings: 80 g/ha, pre-emergence, scored visually after 3 weeks vs untreated controls (100% = plants have died, 0% = like control plants)
# Summary of the method: as §1
# [23] = 80 g/ha, scored visually after 3 weeks vs untreated controls (100% = plants have died, 0% = like control plants)
smiles,measurement,setting,value
CNC(=O)c1c(C(F)(F)F)ccc(C(=O)Nc2nnc(C)o2)c1SC [Example 6-58],pest or weed control at 80 g/ha,"[1]; Digitaria sanguinalis, 504 h, dosage 80 g/ha",100%
same,pest or weed control at 320 g/ha,"[1]; Digitaria sanguinalis, 504 h, dosage 320 g/ha",100%
same,pest or weed control at 80 g/ha,"[2]; Stellaria media, 504 h, dosage 80 g/ha",90%
same,pest or weed control at 320 g/ha,"[2]; Stellaria media, 504 h, dosage 320 g/ha",90%
same,pest or weed control at 80 g/ha,"[3]; Amaranthus retroflexus, 504 h, 80 g/ha, scored visually after 3 weeks vs untreated controls, 100% = plants have died, 0% = like control plants",100%
same,pest or weed control at 320 g/ha,"[3]; Amaranthus retroflexus, 504 h, 320 g/ha, scored visually after 3 weeks, 100% = plants have died, 0% = like control plants",100%
same,pest or weed control at 320 g/ha,"[4]; Echinochloa crus-galli, 504 h, 320 g/ha",100%
same,pest or weed control at 80 g/ha,"[5]; Abutilon theophrasti, 504 h, 80 g/ha, scored visually after 3 weeks vs untreated controls (100% = plants have died, 0% = like control plants)",100%
same,pest or weed control at 320 g/ha,"[5]; Abutilon theophrasti, 504 h, Dosage: 320 g/ha, scored visually after 3 weeks, 100% = plants have died, 0% = like control plants",100%
same,pest or weed control at 80 g/ha,"[6]; Fallopia convolvulus, 504 h, dosage 80 g/ha",100%
same,pest or weed control at 20 g/ha,"[7]; Digitaria sanguinalis, 504 h, 20 g/ha",80%
same,pest or weed control at 80 g/ha,"[7]; Digitaria sanguinalis, 504 h, 80 g/ha",90%
same,pest or weed control at 80 g/ha,"[8]; Tripleurospermum inodorum, 504 h, dosage 80 g/ha",80%
same,pest or weed control at 320 g/ha,"[8]; Tripleurospermum inodorum, 504 h, dosage 320 g/ha",100%
same,pest or weed control at 80 g/ha,"[9]; Amaranthus retroflexus, 504 h, 80 g/ha",90%
same,pest or weed control at 80 g/ha,"[10]; Setaria viridis, 504 h, dosage 80 g/ha",100%
same,pest or weed control at 320 g/ha,"[10]; Setaria viridis, 504 h, dosage 320 g/ha",100%
same,pest or weed control at 20 g/ha,[11]; 20 g/ha,80%
same,pest or weed control at 80 g/ha,[11]; 80 g/ha,90%
same,pest or weed control at 20 g/ha,"[12]; Stellaria media, 504 h, 20 g/ha",80%
same,pest or weed control at 80 g/ha,"[12]; Stellaria media, 504 h, 80 g/ha",80%
same,pest or weed control at 20 g/ha,"[13]; Echinochloa crus-galli, 504 h, dosage 20 g/ha",90%
same,pest or weed control at 80 g/ha,"[13]; Echinochloa crus-galli, 504 h, dosage 80 g/ha",90%
same,pest or weed control at 320 g/ha,"[14]; Viola tricolor, 504 h, dosage 320 g/ha",90%
same,pest or weed control at 320 g/ha,"[15]; Hordeum murinum, 504 h, 320 g/ha",90%
same,pest or weed control at 20 g/ha,"[16]; Abutilon theophrasti, 504 h, dosage 20 g/ha",80%
same,pest or weed control at 80 g/ha,"[16]; Abutilon theophrasti, 504 h, dosage 80 g/ha",80%
CCNC(=O)c1c(C(F)(F)F)ccc(C(=O)Nc2nnc(C)o2)c1C [Example 6-26],Pre-emergence action against DIGSA in %,[1]; dosage 20 g/ha,100%
same,Pre-emergence action against DIGSA in %,[1]; dosage 80 g/ha,100%
same,Pre-emergence action against STEME in %,[2]; dosage 20 g/ha,80%
same,Pre-emergence action against STEME in %,[2]; dosage 80 g/ha,100%
same,Pre-emergence action against AMARE in %,"[3]; 20 g/ha, scored visually after 3 weeks vs untreated controls, 100% = plants have died, 0% = like control plants",100%
same,Pre-emergence action against AMARE in %,[3]; [23],100%
same,Pre-emergence action against ECHCG in %,[4]; 80 g/ha,100%
same,Pre-emergence action against ABUTH (herbicidal activity),[5]; [23],100%
same,Pre-emergence action against ABUTH (herbicidal activity in percent),"[5]; dosage 20 g/ha, scored visually after 3 weeks vs untreated controls, 100% = plants have died, 0% = like control plants",100%
same,Post-emergence action against POLCO in %,[6]; dosage 20 g/ha,80%
same,Post-emergence action against DIGSA in %,[7]; 5 g/ha,90%
same,Post-emergence action against DIGSA,[7]; 20 g/ha,90%
same,Pre-emergence action against MATIN in %,[8]; dosage 20 g/ha,80%
same,Pre-emergence action against MATIN in %,[8]; dosage 80 g/ha,90%
same,Pre-emergence action against AVEFA in %,[17],80%
same,Post-emergence action at 20 g/ha against AMARE in %,[9]; 20 g/ha,100%
same,Post-emergence action against VIOTR in %,[18],100%
same,Pre-emergence action against SETVI in %,[10]; dosage 80 g/ha,100%
same,Pre-emergence action against POLCO in %,[19],100%
same,Post-emergence action against STEME in %,[12]; 20 g/ha,80%
same,Post-emergence action against PHBPU in %,[20],80%
same,Post-emergence action against ECHCG in %,[13]; dosage 5 g/ha,80%
same,Post-emergence action against ECHCG in %,[13]; dosage 20 g/ha,90%
same,Pre-emergence action against VIOTR in %,[14]; dosage 80 g/ha,100%
same,Pre-emergence action against HORMU in %,[15]; 80 g/ha,80%
same,Post-emergence action against SETVI in %,[21],80%
same,Post-emergence action against ABUTH in %,[16]; dosage 5 g/ha,90%
same,Post-emergence action against ABUTH in %,[16]; dosage 20 g/ha,90%
same,Pre-emergence action against ALOMY (herbicidal activity),[22],80%
